# According to publication PMC3237002, “Molecular Conversion of Muscarinic Acetylcholine Receptor M5 to Muscarinic Toxin 7 (MT7)-Binding Protein” (Toxins, 2011):
# Where a chain is given by its changes, count along the chain named.
# Tests used:
# [1] = molecular target: T1, M5-ELYE receptor construct (Homo sapiens, UniProt P08912, K175E/P179L/Q184Y/V474E); assay: [3H]NMS dissociation rate, M5-ELYE; type: binding
# T1 construct: expressed in transfected cells; host or cells: Sf9 cells, recombinant baculovirus
# T1 sequence (P08912 1-532 K175E/P179L/Q184Y/V474E): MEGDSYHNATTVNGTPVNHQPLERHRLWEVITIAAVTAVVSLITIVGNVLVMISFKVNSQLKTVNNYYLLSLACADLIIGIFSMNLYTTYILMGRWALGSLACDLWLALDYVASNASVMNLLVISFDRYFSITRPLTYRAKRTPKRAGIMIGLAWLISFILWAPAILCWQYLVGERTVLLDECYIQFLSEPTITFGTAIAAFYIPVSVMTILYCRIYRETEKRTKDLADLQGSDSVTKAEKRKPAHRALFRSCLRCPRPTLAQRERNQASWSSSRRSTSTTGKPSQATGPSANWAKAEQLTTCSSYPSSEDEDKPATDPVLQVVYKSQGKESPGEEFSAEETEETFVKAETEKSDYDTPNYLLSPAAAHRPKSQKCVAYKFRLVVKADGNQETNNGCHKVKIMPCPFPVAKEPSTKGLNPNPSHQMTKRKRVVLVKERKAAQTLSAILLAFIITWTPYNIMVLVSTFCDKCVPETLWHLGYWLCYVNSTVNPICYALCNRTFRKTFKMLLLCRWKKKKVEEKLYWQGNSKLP
# Experimental: (§1) The Infected cells from monolayer culture were harvested in phosphate-buffered saline solution, centrifuged 700× g and stored as pellets at −70 °C until use. For binding experiments the cells were resuspended in binding buffer (100 mM NaCl, 20 mM HEPES, 10 mM MgCl2, 1 mM EDTA, pH adjusted to 7.4) and homogenized with an Ultra-Turrax homogenizer. […] Atropine (10 μM) was used to determine nonspecific binding. […] Following this, dissociation was started by addition of 10 μM atropine with or without MT7. Aliquots were removed at regular intervals from 0 to 100 min. In testing the reversibility of MT7 binding, cell homogenates were first incubated with toxin in test tubes for 45 min, thereafter centrifuged 12,000 × g for 30 min and then resuspended in fresh buffer. […] All reactions were terminated by rapid filtration through prewashed GF/B filters followed by five washes with cold buffer containing 180 mM NaCl, 25 mM MgCl2, and 20 mM HEPES, pH 7.4, in a microplate harvester. Radioactivity on filters was determined in a TopCount microplate scintillation counter (PerkinElmer, Waltham, MA).
# [2] = molecular target: T2, M5-ELY receptor construct (Homo sapiens, UniProt P08912, K175E/P179L/Q184Y); assay: [3H]NMS dissociation rate, M5-ELY; type: binding
# T2 construct: expressed in transfected cells; host or cells: Sf9 cells, recombinant baculovirus
# T2 sequence (P08912 1-532 K175E/P179L/Q184Y): T1 sequence (P08912 1-532 K175E/P179L/Q184Y/V474E) with E474V
# Experimental: as §1
structure (smiles),measurement,setting,value
"C[N+]1(C)[C@@H]2CC(OC(=O)[C@H](CO)c3ccccc3)C[C@H]1[C@@H]1O[C@@H]12 (some centres unmarked) [[^3H]NMS, [^3H]-N-methylscopolamine]","[3H]NMS dissociation rate, control",[1],0.147 min⁻¹
same,"[3H]NMS dissociation rate, control",[2],0.113 min⁻¹
